Measurements: patent US10662193B2, “Carbazole and carboline compounds for use in the diagnosis, treatment, alleviation or prevention of disorders associated with amyloid or amyloid-like proteins” (AC IMMUNE SA, priority 2014, dated 2020)

What was measured:
[1] = test system: tau tangles/Aβ plaques on AD brain sections; experiment: Assay 1: direct staining of human Alzheimer's disease brain sections (fluorescence); assay type: binding; set-up: key to Direct staining of tau tangles/Aβ plaques on AD brain sections at 100 μM / Direct staining of tau tangles on AD brain sections at 100 μM / Direct staining of Aβ plaques on AD brain sections at 100 μM / Direct staining of tau tangles on AD brain sections (footnote a: at 250 μM): − (No); +++ (strong); ++ (good); + (weak); settings: 100 μM compound; for Direct staining of tau tangles/Aβ plaques on AD brain sections at 100 μM: human AD brain sections, fluorescence, cell does not say tangles or plaques
Description: Assay 1 (Fluorescence Based Assay):
(§1) Direct Binding of Compounds of this Invention to Human Alzheimer's Disease Brain Sections and/or Displacement of RefA and Compound B
(§2) Frozen sections with a thickness of […] from the amygdala of donors diagnosed with Braak stage V-VI Alzheimer's Disease (Braak, H.; Braak, E. Acta Neuropathol., 1991, 82, 239-259), were purchased from a commercial provider (Tissue Solutions) and kept at −80° C. until use.
Direct Staining of Human Alzheimer's Disease Brain Sections
Brain sections were encircled with pap pen liquid blocker to reduce the volume of solution for the different incubations. Sections were fixed for 15 min at 4° C. with 4% paraformaldehyde and washed three times 5 minutes with PBS at room temperature. […] To reduce the auto-fluorescence of the tissue, the sections were incubated in a solution of 0.1% Sudan Black (Sigma 199664) in 70% ethanol for 15 min at room temperature in the dark, washed four times for 5 minutes with PBS, and mounted using ProLong Gold Antifade reagent (Invitrogen P36930). Sections were then analyzed on the Nikon Eclipse Ti microscope to detect staining and imaged using Nikon DS-Fi2 camera and NIS-Element AR4.13.1 software.

AD brain-enriched PHF = AD brain-enriched PHF (Homo sapiens, UniProt P10636); experiment: Assay 2 (filter trap): [3H]RefA radio-binding competition assay and Ki on PHF; settings: [^3H]RefA 10 nM; for inhibition at 2.5 µM: compound 2.5 μM, no Ki determined; for Ki: PHF diluted 1/80, compound 0.12 nM to 50 μM
Description: Displacement of [^3H]RefA by Compounds of this Invention
50 g of frontal lobe tissue from post-mortem brain of an Alzheimer's disease (AD) patient were obtained from the London Tissue Bank. The patient was a […] and died […]. The brain sample was collected 5 hours post-mortem and characterized for Braak disease stage (Braak, H.; Braak, E. Acta Neuropathol., 1991, 82, 239-259) as stage VI. For the enrichment of PHF's, around 15 g of the AD human brain was thawed on ice and homogenized with 50 ml of homogenization buffer [0.75 M NaCl in RAB buffer (100 mM 2-(N-morpholino) ethanesulfonic acid (MES), 1 mM EGTA, 0.5 mM MgSO4, 2 mM DTT, pH 6.8) supplemented with protease inhibitors (Complete; Roche 11697498001) in a glass Dounce homogenizer. The homogenate was then incubated at 4° C. for 20 min to let any residual microtubules depolymerize, before the homogenate was transferred into polycarbonate centrifuge bottles (16×76 mm; Beckman 355603) and centrifuged at 11,000 g (12,700 RPM) in an ultracentrifuge (Beckman, XL100K) for 20 min at 4° C. using the pre-cooled 70.1 rotor (Beckman, 342184). Pellets were kept on ice. Supernatants were pooled into polycarbonate bottles and centrifuged again at 100,000 g (38,000 RPM) for 1 h at 4° C. in the 70.1 Ti rotor to isolate PHF-rich pellets, whereas soluble tau remained in the supernatants. The pellets from the first and second centrifugations were re-suspended in 120 mL of extraction buffer [10 mM Tris-HCl pH 7.4, 10% sucrose, 0.85 M NaCl, 1% protease inhibitor (Calbiochem 539131), 1 mM EGTA, 1% phosphatase inhibitor (Sigma P5726 and P0044)]. The solution was then transferred into polycarbonate centrifuge bottles (16×76 mm; Beckman 355603) and centrifuged at 15,000 g (14,800 RPM) in an ultracentrifuge (Beckman, XL100K) for 20 min at 4° C. using the 70.1 Ti rotor. In the presence of 10% sucrose and at low speed centrifugation, most PHF remained in the supernatant whereas intact or fragmented NFTs and larger PHF aggregates were pelleted. The pellets were discarded. 20% Sarkosyl (Sigma L7414-10ML) was added to the supernatants to a final concentration of 1% and stirred at room temperature for 1 h. This solution was then centrifuged into polycarbonate bottles at 100,000 g (38,000 RPM) for 1 h at 4° C. in the 70.1 Ti rotor, and the pellets containing PHF-rich material were re-suspended in a total final volume of 1.5 mL of PBS, aliquoted and stored at −80° C.
[^3H]RefA Radio-Binding Competition Assay
AD brain-enriched PHF diluted 1/80 were incubated in the presence of [^3H]RefA at 10 nM and the example compounds of this invention at 2.5 μM (250× excess), for 45 minutes at 37° C. Samples were then analyzed by on GF/B filter plates as described above (in the section “[^3H]RefA radio-binding assay and determination of the dissociation constant (Kd)). Non-specific signal was determined again with an excess of un-labeled RefA and specific binding calculated by subtracting the non-specific signal from the total signal. Competition was calculated as percent, where 0% was defined as the specific binding in the presence of vehicle (2.8% DMSO in PBS) and 100% as the values obtained in the presence of excess cold RefA. Similar assays were performed to determine the competition of the cold compounds on [^3H]RefA on in vitro aggregated recombinant human tau or Abeta1-42 For both recombinant proteins, 20 μg/mL of aggregates were incubated with 10 nM of [^3H]RefA for recombinant human tau or 80 nM of [^3H]RefA for recombinant human Abeta1-42.
Determination of the Binding Affinity (Ki)
Samples were then analyzed on GF/B filter plates as described above and Ki values calculated using Prism V5 (GraphPad).

[2] = test system: tau tangles on AD brain section; experiment: Assay 1: displacement of RefA on human AD brain sections (fluorescence); assay type: binding; settings: 1 μM RefA vs. 250 μM compound
Description: as §1, §2
Displacement of RefA and Compound B
Brain sections were mainly treated as described above. Test compounds were, however, incubated on the section at 250 μM in 50% ethanol for 20 min at room temperature, and then directly incubated with the fluorescent reference compounds RefA and Compound B, each at 1 μM in 50% ethanol for 20 min at room temperature. RefA and Compound B stainings were visualized using the 470 nm and 365 nm excitation filters, respectively. Images were acquired, and tangles and plaques quantified using the NIS-Element software. Only those compounds not directly staining tangles or plaques at the same wavelengths as RefA and Compound B were tested in the displacement assay.
Structure of RefA (Tago et al., J. Label. Compd. Radiopharm. 2013, DOI: 10.1002/jlcr.3133)

Sequence of AD brain-enriched PHF (P10636 623-708 limits assumed): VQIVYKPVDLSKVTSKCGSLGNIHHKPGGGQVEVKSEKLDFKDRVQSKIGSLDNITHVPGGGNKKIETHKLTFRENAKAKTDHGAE

SMILES	Direct staining of tau tangles/Aβ plaques on AD brain sections at 100 μM [1]	Direct staining of tau tangles on AD brain sections at 100 μM [1]	other results
COc1cc(Nc2ccc3c4c(n(C)c3n2)CCN(C)C4=O)ccc1C [Example 171]	−		inhibition at 2.5 µM (AD brain-enriched PHF): < 50%
Cn1c2ccncc2c2ccc(Nc3ccnn3CCF)nc21 [Example 46]	−		Competition on AD brain section tau tangles (1 μM RefA vs. 250 μM compound) [2]: 55%
Cn1c2ccncc2c2ccc(Nc3c(F)cccc3N3CCOCC3)nc21 [Example 15]			inhibition at 2.5 µM (AD brain-enriched PHF): < 50%
CN1CCc2c(c3ccc(Nc4ccn(CCF)n4)nc3n2C)C1=O [Example 190]	−		
Cn1c2ccncc2c2ccc(Nc3ccc(OCCF)cc3)nc21 [Example 20]			Direct staining of Aβ plaques on AD brain sections at 100 μM [1]: + (plaques)
COc1cc(Nc2ccc3c4c(n(C)c3n2)CCNC4=O)ccc1F [Example 180]	−		
Cn1c2ccncc2c2ccc(Nc3cccc(NCCF)c3)nc21 [Example 71]		+ (tangles) + (plaques)	Direct staining of Aβ plaques on AD brain sections at 100 μM [1]: + (tangles) + (plaques)
CN1CCc2c(c3ccc(N4CCC[C@@H](F)C4)nc3n2C)C1=O [Example 196]	−		
Cn1c2ccncc2c2ccc(Nc3cccc(F)c3N3CCOCC3)nc21 [Example 14]			Ki (AD brain-enriched PHF): 371 nM
Cc1nn(CCF)c(C)c1Nc1ccc2c3cnccc3n(C)c2n1 [Example 49]		+ (tangles)	
Cn1c2ccncc2c2ccc(Nc3ccc([N+](=O)[O-])c(F)c3)nc21 [Example 99]	−		
Cn1c2ccncc2c2ccc(Nc3ccc(F)cc3)nc21 [Example 18]	−		
Cn1c2ccncc2c2ccc(Nc3ccn(CCF)n3)nc21 [Example 47]		++ (tangles)	Competition on AD brain section tau tangles (1 μM RefA vs. 250 μM compound) [2]: 89%
Cn1c2c(c3ccc(Nc4ccc(C#N)c(F)c4)nc31)C(=O)N(CCF)CC2 [Example 187]		+ (tangles)	
CN1CCc2c(c3ccc(Nc4ccnc(OCCF)c4)nc3n2C)C1=O [Example 204]	−		
CN1CCc2c(c3ccc(Nc4cccc(NCCF)n4)nc3n2C)C1=O [Example 81]	−		
FCCN(c1ccc(F)c(F)c1)c1ccc2c3cnccc3n(CCF)c2n1 [Example 164]			Direct staining of Aβ plaques on AD brain sections at 100 μM [1]: + (plaques)
Cn1c2ccncc2c2ccc(Nc3cnn(CCF)c3)nc21 [Example 40]		+++ (tangles)	Competition on AD brain section tau tangles (1 μM RefA vs. 250 μM compound) [2]: 91%
OCCn1c2ccncc2c2ccc(Nc3ccc(F)c(F)c3)nc21 [Example 166]	−		

SMILES	Direct staining of tau tangles/Aβ plaques on AD brain sections at 100 μM [1]	Direct staining of tau tangles on AD brain sections at 100 μM [1]	other results
COc1cc(Nc2ccc3c4cnccc4n(C)c3n2)ccn1 [Example 24]			Direct staining of Aβ plaques on AD brain sections at 100 μM [1]: + (plaques)
Cn1c2ccncc2c2ccc(Nc3cccc(OCCOCCF)n3)nc21 [Example 56]		++ (tangles)	
Cn1c2ccncc2c2ccc(Nc3ccc(F)c(OCCF)c3)nc21 [Example 57]		++ (tangles)	
CN1CCc2c(c3ccc(Nc4ccc(F)c(OCCF)c4)nc3n2C)C1=O [Example 200]		+ (tangles) + (plaques)	Direct staining of Aβ plaques on AD brain sections at 100 μM [1]: + (tangles) + (plaques)
Cn1c2c(c3ccc(Nc4ccc(F)c(F)c4)nc31)C(=O)N(CCCN)CC2 [212 Step F]			inhibition at 2.5 µM (AD brain-enriched PHF): < 50%
Cn1c2c(c3ccc(Nc4ccc(NCCF)cn4)nc31)C(=O)NCC2 [Example 82]		+ (tangles)	
Cn1c2ccncc2c2ccc(N3CCC[C@H](F)C3)nc21 [Example 158]		++ (tangles)	
Cn1c2ccncc2c2ccc(Nc3cccc(NCCF)n3)nc21 [Example 78]		++ (tangles)	Competition on AD brain section tau tangles (1 μM RefA vs. 250 μM compound) [2]: 91%
Cn1c2c(c3ccc(Nc4ccc(OCCF)c(F)c4)nc31)C(=O)NCC2 [Example 199]		+ (tangles) + (plaques)	Direct staining of Aβ plaques on AD brain sections at 100 μM [1]: + (tangles) + (plaques)
Cn1c2c(c3ccc(Nc4cccc(OCCF)c4)nc31)C(=O)NCC2 [Example 178]	−		
Cn1c2ccncc2c2ccc(Nc3ccc(F)c([N+](=O)[O-])c3)nc21 [Example 98]	−		
Cn1c2ccncc2c2ccc(Nc3ccc(C#N)c(OCCF)c3)nc21 [Example 21]	−		
COc1cc(Nc2ccc3c4cnccc4n(C)c3n2)ccc1F [Example 31]		+ (tangles) + (plaques)	Direct staining of Aβ plaques on AD brain sections at 100 μM [1]: + (tangles) + (plaques)
COCCOCCn1c2ccncc2c2ccc(Nc3cccc(OCCF)c3)nc21 [Example 167]	−		
Cn1c2ccncc2c2ccc(Nc3cccc(OC(F)(F)F)c3)nc21 [Example 13]			Ki (AD brain-enriched PHF): 169 nM
Cn1c2c(c3ccc(Nc4ccc(F)c(F)c4)nc31)C(=O)N(CCF)CC2 [Example 183]			Direct staining of Aβ plaques on AD brain sections at 100 μM [1]: + (plaques)
Cn1c2ccncc2c2ccc(Nc3cnn(CCCCF)c3)nc21 [Example 45]	−		Competition on AD brain section tau tangles (1 μM RefA vs. 250 μM compound) [2]: 39%
CN(C)c1cc(Nc2ccc3c4cnccc4n(C)c3n2)ccc1F [Example 41]	−		
